In PubChem BioAssay AID2060506 (Molecular Pharmacology Branch, DTP, NCI, 2025) one finds IC50 and viability, T/C data, which are given here for seven compounds.

Values joined by “and” are separate entries in the source; they are usually repeats but may differ in a detail not shown here. Identical values can stand only once.

For this assay, the system named is 598228-144-R-J1-PDC complex spheroid viability. Put plainly: Anticancer human tumor 598228-144-R-J1-PDC patient-derived serous endometrial adenocarcinoma cell line growth inhibition [GQUAD]. Particulars: for viability, T/C: stronger effect = lower value. An excerpt: DNA G-quadruplex Stabilizer Agents in Combinations in Complex Spheroids
A high-throughput screen of multi-cell type tumor spheroids was designed to identify active combinations of DNA G-quadruplex stabilizer agents and targeted small molecules. Complex spheroids include a stromal component modeled by human endothelial cells (HUVEC) and fibroblasts modeled by human mesenchymal stem cells (MSCs). The concentration ranges selected for each drug and investigational agent were based upon clinically achievable concentrations if the clinical Cmax of the agent was known.
Compounds. The drugs and investigational agents: pidnarulex (CX-5461; NSC782164), APTO-253 (NSC789042), BRACO-19 (NSC847499), peposertib (NSC802822), ceralasertib (NSC780249), elimusertib (NSC800525), camonsertib (NSC841442), AZD-1390 (NSC803789), olaparib (NSC753686), talazoparib (NSC767125), ART-558 (NSC835418), sotorasib (NSC818433), MRTX-1133 (NSC836407), SN-38 (NSC673596), topotecan (NSC609699), etoposide (NSC141540), doxorubicin (NSC123127), gemcitabine (NSC613327), 5-fluorouracil (NSC19893), paclitaxel (NSC125973), vemurafenib (NSC761431), panobinostat (NSC761190), R-306465 (JNJ-16241199; NSC773264), adavosertib (NSC754352), TP-3654 (NSC805149), carboplatin (NSC241240), KSQ-4279 (NSC840948), and staurosporine (NSC755774) were obtained from the National Cancer Institute (NCI) Developmental Therapeutics Program Chemical Repository (34). The FDA-approved anticancer drug set is available from the NCI Developmental Therapeutics Program. […] The stock solutions were prepared in dimethyl sulfoxide (DMSO, Sigma-Aldrich, St. Louis, MO, cat. D2650) at 800-fold the tested concentration and stored at -70 degrees C prior to their use. All drugs and investigational agents were tested over a range starting from a high concentration at or near the clinical Cmax and decreasing in half-log increments. If the clinical Cmax for an agent had not been determined, the highest concentration tested was 10 microM.
2.3 Cell Culture. All cells were maintained in an incubator at 37 degrees C and 5% CO2 with 95% humidity. The PDC lines were cultured according to standard operating procedures established by the NCI PDMR. All PDCs were thawed and cultured in Matrigel-coated flasks prepared with a working solution of 1X Ham's F-12 nutrient mix, without supplementation (Invitrogen, cat. 11765054), 100 U/mL penicillin-streptomycin (Invitrogen, cat. 15140122), and 2.5% Matrigel (Corning Inc., cat. 354248) for the first three passages. The 857933-349-R-J2-PDC line was cultured in 6C/Colon 1B media, which includes advanced DMEM/F-12 (Thermo Fisher Scientific, cat. 12634028), 10 mM HEPES (Thermo Fisher Scientific, cat. 15630080), 1X GlutaMAX supplement (Thermo Fisher Scientific, cat. 35050061), 0.1 mg/mL primocin (InvivoGen, cat. ant-pm-2), 10% defined fetal bovine serum, heat inactivated (HyClone Laboratories Inc., cat. SH30070.03HI), 50% L-WRN conditioned media (ATCC, cat. CRL-3276), 1.25 mM N-Acetyl-L-cysteine (Sigma-Aldrich, cat. A9165), 10 mM nicotinamide (Sigma-Aldrich, cat. N0636), 1X B-27 supplement (Thermo Fisher Scientific, cat. 17504044), 1X N-2 supplement (Thermo Fisher Scientific, cat. 17502048), 10 microM Y-27632 dihydrochloride (Tocris Bioscience, cat. 1254), and 50 ng/mL human EGF recombinant protein (Thermo Fisher Scientific, cat. PHG0311). The 485176-168-R4-J1-PDC line was cultured in Panc media, which includes all 6C/Colon 1B media components plus 100 ng/mL human FGF-10 (Thermo Fisher Scientific, cat. 100-26), 500 nM SB-431542 (Selleckchem, cat. S1067), and gastrin (Tocris, cat. 3006).
[…]
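Further: spheroids exposed to the agents for one week before reading.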
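Wherever viability, T/C is given: percent of vehicle DMSO control viability so 100% = untreated growth.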

With `CC1COCCN1c1cc(C2(O)CC3CCC(C2)O3)c2cnn(-c3ccn[nH]3)c2n1` (centres undefined) + Cc1cnc(CNC(=O)c2c(=O)c3ccc(N4CCCN(C)CC4)nc3n3c2sc2ccccc23)cn1, the IC50 is 0.0425 µM (curve of first compound, second compound 0.0316 µM); less than 0.0316 µM (curve of first compound, second compound 0.1 µM); less than 0.0316 µM (curve of first compound, second compound 0.316 µM); less than 0.0316 µM (curve of first compound, second compound 1 µM); less than 0.0316 µM (curve of first compound, second compound 3.16 µM); less than 0.0316 µM (curve of first compound, second compound 10 µM). Moreover, the viability, T/C reads like this: (second compound 0.0316 µM, first compound 0.0316 µM) 59.9%; (second compound 0.0316 µM, first compound 0.1 µM) 31.8%; (second compound 0.0316 µM, first compound 0.316 µM) 35.8%; (second compound 0.0316 µM, first compound 1 µM) 36.6%; (second compound 0.0316 µM, first compound 3.16 µM) 22.5%; (second compound 0.0316 µM, first compound 10 µM) 9.67%. The viability, T/C was 46% (second compound 0.1 µM, first compound 0.0316 µM); 38% (second compound 0.1 µM, first compound 0.1 µM); 32.8% (second compound 0.1 µM, first compound 0.316 µM); 34.7% (second compound 0.1 µM, first compound 1 µM); 19.8% (second compound 0.1 µM, first compound 3.16 µM); 9.84% (second compound 0.1 µM, first compound 10 µM). In addition, the viability, T/C reads like this: (second compound 0.316 µM, first compound 0.0316 µM) 41%; (second compound 0.316 µM, first compound 0.1 µM) 39.7%; (second compound 0.316 µM, first compound 0.316 µM) 33%; (second compound 0.316 µM, first compound 1 µM) 36.4%; (second compound 0.316 µM, first compound 3.16 µM) 20.9%; (second compound 0.316 µM, first compound 10 µM) 7.21%. Further, the viability, T/C reads like this: (second compound 1 µM, first compound 0.0316 µM) 44.6%; (second compound 1 µM, first compound 0.1 µM) 41.9%; (second compound 1 µM, first compound 0.316 µM) 35.9%; (second compound 1 µM, first compound 1 µM) 24%; (second compound 1 µM, first compound 3.16 µM) 12.7%; (second compound 1 µM, first compound 10 µM) 4.57%. The viability, T/C runs as follows: (second compound 3.16 µM, first compound 0.0316 µM) 34.8%; (second compound 3.16 µM, first compound 0.1 µM) 37.9%; (second compound 3.16 µM, first compound 0.316 µM) 25.5%; (second compound 3.16 µM, first compound 1 µM) 7.29%; (second compound 3.16 µM, first compound 3.16 µM) 0.25%; (second compound 3.16 µM, first compound 10 µM) 0.64%. Further, the viability, T/C reads like this: (second compound 10 µM, first compound 0.0316 µM) 14.6%; (second compound 10 µM, first compound 0.1 µM) 0.4%; (second compound 10 µM, first compound 0.316 µM) 0.37%; (second compound 10 µM, first compound 1 µM) 0.29%; (second compound 10 µM, first compound 3.16 µM) 0.34%; (second compound 10 µM, first compound 10 µM) 0.24%.
Turning to `C#Cc1c(F)ccc2cc(O)cc(-c3ncc4c(N5CC6CCC(C5)N6)nc(OCC56CCCN5CC(F)C6)nc4c3F)c12` (centres undefined), the viability, T/C by setting is: (compound 0.0316 µM) 103% and 107% and 96.2%; (compound 0.1 µM) 98.9% and 118% and 97.6%; (compound 0.316 µM) 106% (2×) and 98.1%; (compound 1 µM) 100% and 101% and 92.4%; (compound 3.16 µM) 96.8% and 99.4% and 96.6%; (compound 10 µM) 84.1% and 105% and 83.3%. For the same compound, for the setting “curve of compound”, the IC50 is greater than 10 µM.
For the compound `COc1cc(C2c3cc4c(cc3C(OC3OC5COC(C)OC5C(O)C3O)C3COC(=O)C23)OCO4)cc(OC)c1O` (centres undefined), the viability, T/C by setting is: (compound 0.0316 µM) 89.4% and 97.4% and 93.6%; (compound 0.1 µM) 96.5% and 82.4% and 72.5%; (compound 0.316 µM) 74.2% and 76.2% and 74.6%; (compound 1 µM) 78.1% and 70.3% and 58.1%; (compound 3.16 µM) 64.4% and 59.9% and 78.7%; (compound 10 µM) 48% and 46% and 36%. Moreover, the IC50 (curve of compound) is 9.17 µM and 7.57 µM and 6.25 µM.
Turning to `COc1ncnc(C2CC2)c1-c1ncc2cnn(Cc3ccc(-c4nc(C(F)(F)F)cn4C(C)C)cc3)c2n1`, the viability, T/C was 112% and 120% and 109% (compound 0.0316 µM); 99.5% and 93.3% and 79.8% (compound 0.1 µM); 107% and 103% and 102% (compound 0.316 µM); 106% and 104% and 102% (compound 1 µM); 97.8% and 112% and 113% (compound 3.16 µM); 105% and 117% and 89% (compound 10 µM). For the same compound, under “curve of compound”, the IC50 is greater than 10 µM.
As to `C=CC(=O)N1CCN(c2nc(=O)n(-c3c(C)ccnc3C(C)C)c3nc(-c4c(O)cccc4F)c(F)cc23)C(C)C1` (centres undefined), the viability, T/C reads like this: (compound 0.0316 µM) 89% and 91.5% and 95%; (compound 0.1 µM) 106% and 107% and 112%; (compound 0.316 µM) 102% and 127% and 100%; (compound 1 µM) 155% and 112% (2×); (compound 3.16 µM) 145% and 124% and 111%; (compound 10 µM) 113% and 108% and 106%. Besides, the IC50 (curve of compound) is greater than 10 µM.
As to `Cn1ncnc1[C@H]1c2n[nH]c(=O)c3cc(F)cc(c23)N[C@@H]1c1ccc(F)cc1`, the viability, T/C reads like this: (compound 0.000999 µM) 102% and 87.8% and 113%; (compound 0.00316 µM) 108% and 103% and 91.4%; (compound 0.00999 µM) 73.5% and 93.9% and 92.7%; (compound 0.0316 µM) 101% and 75.7% and 85.6%; (compound 0.0999 µM) 90.7% and 71.7% and 88%; (compound 0.316 µM) 73.6% and 88.2% and 69.7%. Under “curve of compound”, the concentration for half-maximal inhibition (IC50) was greater than 0.316 µM.
With `CCCS(=O)(=O)Nc1ccc(F)c(C(=O)c2c[nH]c3ncc(-c4ccc(Cl)cc4)cc23)c1F`, the viability, T/C by setting is: (compound 0.0316 µM) 122% and 103% and 107%; (compound 0.1 µM) 93.3% and 86.4% and 114%; (compound 0.316 µM) 104% and 110% and 102%; (compound 1 µM) 106% and 110% and 130%; (compound 3.16 µM) 100% and 90.5% and 112%; (compound 10 µM) 44.2% and 26.5% and 30.6%. For the same compound, the concentration for half-maximal inhibition (IC50) (curve of compound) was 8.88 µM and 6.56 µM and 7.61 µM.
